{
  "source": "paper PMC5796017",
  "about": "“Enantiomeric Effect of D-Amino Acid Substitution on the Mechanism of Action of α-Helical Membrane-Active Peptides” (International Journal of Molecular Sciences, 2017)",
  "key": {"[1]": {"test": "RP-HPLC retention time as relative hydrophobicity", "type": "physicochemical", "conditions": "25 °C, used by the paper as measure of relative hydrophobicity", "procedure": "The RP-HPLC retention time has been widely used to represent the relative hydrophobicity of peptides in many studies.The relative hydrophobicity of the peptides was determined by the RP-HPLC retention times at 25 °C. The change in hydrophobicity of the peptides caused by D-amino acid substitutions was mainly due to the disruption of the helical structure."}, "[2]": {"tested_on": "human red blood (hRBC) cells", "test": "Hemolytic activity assay", "type": "cell-based", "conditions": "2% human RBC in PBS, 37 °C, 2 h, absorbance 578 nm, triplicate", "outline": "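Healthy human RBCs (2% suspension in PBS) were incubated with serially diluted peptides for 2 h at 37 °C, and released hemoglobin in supernatant was read at 578 nm. Percent hemolysis was taken relative to distilled water (100%) after subtracting PBS (0%); run in triplicate.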"}, "E. coli ATCC25922": {"tested_on": "E. coli ATCC25922", "test": "Outer membrane permeability assay (NPN uptake)", "type": "cell-based, Escherichia coli", "conditions": "16 μM peptide, 10 min, excitation 350 nm, emission 420 nm", "text": "To explore the potential role of the helicity of the peptides in damaging cell membranes, we investigated the disruption of the outer membrane of Escherichia coli (E. coli) by quantifying the fluorescence intensity of 1-N-phenylnaphthylamine (NPN), which is a hydrophobic fluorescent probe. The intensity of NPN is weak in a hydrophilic environment. The fluorescence intensity of NPN gradually increases as it is exposed to a more hydrophobic environment due to damage to the bacterial outer membrane by MAPs.\nThe outer membrane permeability of the peptides against E. coli ATCC25922 was evaluated using the hydrophobic fluorescent probe NPN, as performed previously. In brief, E. coli was cultured in LB medium at 37 °C until the absorbance of the bacterial suspension at 600 nm was 0.4–0.6, the bacterial pellet was collected by centrifugation and resuspended in a reaction buffer (pH 7.4, 5 mM HEPES, 5 mM NaN3, 0.25 mM NPN) until the absorbance at 600 nm was 0.5. Then, an aliquot of the peptide sample and the bacterial suspension were co-incubated to give a final peptide concentration of 16 μM. The same volume of reaction buffer was used as the negative control. A Shimadzu RF-5301 PC fluorescent spectrometer (excitation wavelength of 350 nm, emission wavelength of 420 nm) was used to collect data continuously for 10 min."}},
  "data": [
    {"smiles": "CC[C@H](C)[C@H](NC(=O)[C@H](C)NC(=O)[C@H](CCCCN)NC(=O)[C@H](CC(C)C)NC(=O)[C@H](C)NC(=O)[C@@H](NC(=O)[C@H](Cc1cnc[nH]1)NC(=O)[C@H](CC(C)C)NC(=O)[C@@H](NC(=O)[C@@H](NC(=O)[C@H](CCCCN)NC(=O)[C@H](CCCCN)NC(=O)[C@H](C)NC(=O)[C@H](CO)NC(=O)[C@H](CCCCN)NC(=O)[C@H](Cc1ccccc1)NC(=O)[C@@H](NC(=O)[C@H](CCCCN)NC(=O)[C@H](CC(C)C)NC(=O)[C@H](Cc1ccccc1)NC(=O)[C@H](CO)NC(=O)[C@H](CCCCN)NC(=O)[C@H](Cc1c[nH]c2ccccc12)NC(=O)[C@H](CCCCN)NC(C)=O)[C@@H](C)O)[C@@H](C)O)C(C)C)[C@@H](C)O)C(=O)N[C@@H](CO)C(=O)N[C@@H](CO)C(N)=O", "note": "[Peptide V13K]", "values": [
      {"measurement": "tR (RP-HPLC retention time), relative hydrophobicity", "setting": "[1]", "result": 44.48, "unit": "min"},
      {"measurement": "MHC (minimal hemolytic concentration)", "setting": "[2]", "result": 250, "unit": "µM"},
      {"measurement": "Outer membrane permeabilization, NPN fluorescence intensity", "setting": "E. coli ATCC25922", "result": "enhanced"}
    ]}
  ]
}
